Tests used:
[1] = target: T1, Ribosyldihydronicotinamide dehydrogenase [quinone] (Homo sapiens, UniProt P16083)
T1 sequence (P16083 whole entry): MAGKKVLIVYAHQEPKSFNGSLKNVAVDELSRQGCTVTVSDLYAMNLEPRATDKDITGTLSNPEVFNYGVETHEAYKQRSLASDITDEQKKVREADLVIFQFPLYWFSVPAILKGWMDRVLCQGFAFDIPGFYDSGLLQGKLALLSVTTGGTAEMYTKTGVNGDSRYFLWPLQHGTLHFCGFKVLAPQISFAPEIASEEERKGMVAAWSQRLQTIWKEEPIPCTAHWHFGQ
Description: Inhibition of recombinant human NQO2 using DCPIP and EPR as substrate measured over 1 min in presence of FAD by spectrophotometric analysis

A549 = assay: cells; conditions: Homo sapiens, A549, 48 h, read-out: INH

Structure (SMILES)	IC50 [1]	inhibition at 10 µM (A549)
COc1cc(-c2ccc3cc(N)ccc3c2)cc(OC)c1OC	69 nM	24.3%
COc1cc(/C=C/c2ccc(N)cc2)cc(OC)c1OC	–	14.7%
Oc1ccc(/C=C/c2cc(O)cc(O)c2)cc1 [RESVERATROL]	–	15.4%

Source: ChEMBL document CHEMBL6115006, “Discovery of potent quinone oxidoreductase 2 inhibitors to overcome TRAIL resistance of non-small cell lung cancer” (Eur J Med Chem, 2025)
